pIC50: −log10 of the molar value. Square brackets hold non-standard residues; d marks the D form. Peptide text beside a SMILES is read from it. * marks the point of attachment. Dolaproine = CO[C@@H]([C@@H]1CCCN1)[C@@H](C)C(=O)O; Dil = CC[C@H](C)[C@H](NC)[C@@H](CC(=O)O)OC; X1 = C[C@@H](N*)[C@@H](O)c1ccccc1; NMeV = CN[C@H](C(=O)O)C(C)C
What was measured:
[1] = tested on: CALU3 (EGFR+, HER2+) cells; assay: Neutral comet assay; assay type: cell-based, human; settings: 6 Gy, 2 nM overnight, vs vehicle or 20 nM antibody
Experimental: (§1) Cells were collected 15 min post IR, suspended in agarose gel and lysed per assay directions (Trevigen). Samples underwent electrophoresis under neutral conditions and were then stained with Sybr Green. Comet tails were counted in multiple fields (>60 cells per sample) and analysed using CometScore (TriTek Corp). Comet tail length was normalized to vehicle-treated, non-irradiated cells.

OE19 cells (HER2+) = assay: Neutral comet assay; assay type: cell-based, human
Experimental: as §1

CAL-27 cells [2] = assay: Phase contrast microscopy; assay type: cell-based, human; settings: 2 nM overnight
From the text: Cells were fixed at indicated times and imaged for Cy5 fluorescence (red). Nuclei stained with DAPI (blue). Scale bar, 10 gm. Representative images of three independent experiments. […] Nuclei stained with DAPI (blue). Scale bar, 10 gm. Representative images of three independent experiments. […] Representative data of two independent experiments. […] Representative images of three independent experiments. Scale bar, 50 gm.

[3] = tested on: CAL-27 (EGRF+) and OE19 (HER2+) cells; assay: Alamar Blue cell viability assay; assay type: cell-based, human; settings: dose range, 72-96 h
CAL-27 cells [4] = assay: Cell cycle (propidium iodide, flow cytometry); assay type: cell-based, human; settings: treated overnight
Experimental: (§2) Cells were treated with RNAse, stained with propidium iodide (PI) and analysed by FACS using FloJo software.

OE19 cells [5] = assay: Cell cycle (propidium iodide, flow cytometry); assay type: cell-based, human; settings: treated overnight
Experimental: as §2

CAL-27 tumour xenografts = assay: In vivo tumour xenograft experiments (tumour growth); design: species or system mice; settings: non-irradiated tumours; day 0 dose: 0.5 nmol cetuximab or C-MMAE, 2 nmol free MMAE
Experimental: (§4) CAL-27, OE19, NCI N87 and HCT116 tumour xenografts were established and tumour growth was measured with digital calipers. Tumour volume was measured blindly to treatment group and calculated using the formula as 1/2×length×width. Mice were randomized into groups once the average tumour volume reached >100=113. […] For irradiated mice, the tumour-bearing hindlimbs were focally irradiated while the remainder of the mouse was shielded from IR with custom designed lead blocking >95% of the dose as verified by dosimeters placed on the mouse. […] To prevent unnecessary morbidity, mice were killed if tumour length exceeded 15 mm per protocol Nonlinear regression least squares fit was used to calculate tumour volume doubling times. […] To minimize the number of mice used, tumours were grown in the bilateral flanks.

CAL-27 cells [6] = assay: Clonogenic assay (SF2); assay type: cell-based, human; settings: drug overnight then 2 Gy, mertansine 5 nM
Experimental: Following IR, cells were counted, re-plated at varying cell numbers in drug-free media. […] Surviving fraction at 2 Gy (SF2) was calculated as the fraction of cells surviving 2 Gy compared with non-irradiated cells.

HER2+ tumor cells = assay: Neutral comet assay following 2 Gy, FIG. 8; assay type: cell-based
From the text: Neutral comet assay to measure DNA double strand breaks following 2 Gy of ionizing radiation (IR). IR increased comet tail length by 2.8 fold comapred to non-irradiated cells.

[7] = tested on: HER2 expressing tumor cells; tumor cell lines; assay: Cell survival by Alamar Blue assay, FIG. 7; assay type: cell-based; settings: across tumor cell lines
From the text: MMAF potency can be increased and cytotoxicity restricted by antibody conjugation. Cell survival measured by Alamar Blue assay.

HCT116 cells [8] = assay: Clonogenic assay (SF2); assay type: cell-based, human; settings: 5 nM mertansine overnight then 2 Gy
Experimental: Following IR, cells were counted, re-plated at varying cell numbers in drug-free media. 10-14 days after initial seeding formed colonies were methanol fixed, stained with crystal violet and counted. Surviving fraction at 2 Gy (SF2) was calculated as the fraction of cells surviving 2 Gy compared with non-irradiated cells.

HER2+ cell lines = assay: Neutral comet assay; assay type: cell-based, human; settings: HER2+ cells; 20 nM overnight, 2 Gy
Experimental: as §1

HER2− cell lines = assay: Neutral comet assay; assay type: cell-based, human; settings: HER2− cells; 20 nM overnight, 2 Gy
Experimental: as §1

HCT116 cells [9] = assay: Cell cycle (propidium iodide, flow cytometry); assay type: cell-based, human; settings: treated overnight
Experimental: as §2

[10] = tested on: cell lines irrespective of HER2 expression; assay: Alamar Blue cell viability assay, cells based on HER2 expression; design: species or system human; settings: 72-96 h
CAL-27 cells [11] = tested on: CAL-27 cells
Experimental: (§3) Alamar Blue (resazurin) was added to the cells and allowed to incubate for 2-4 h at 37° C. Plates were analysed using a plate reader with fluorescence measured at 560 nm.

[12] = tested on: OE19 (HER2+) tumour xenografts; assay: In vivo tumour xenograft experiments (tumour growth); design: species or system mice; settings: for Tumour doubling time in days (mean, 95% CI): OE19
Experimental: as §4

OE19 tumour xenografts = assay: Immunohistochemistry of tumour xenografts (pHistone H3, cleaved caspase 3); assay type: in vivo, mice; settings: OE19 tumours harvested 48 h after injection
Experimental: Tissue sections were cut from blocks of formalin-fixed paraffin embedded xenografts. Four micron thick tissue sections were stained with antibodies to phosphohistone H3 (pH3, Abcam, catalogue number ab32107) and cleaved caspase-3 (C1C3, Cell Signaling Technology, catalogue number 9661) and used at dilutions of 1:300 and 1:900, respectively. Slides were stained on a Ventana Discovery Ultra (Ventana Medical Systems, Tucson, Ariz., USA). Antigen retrieval was performed using CC1 for 24-40 min at 95° C. The primary antibodies were incubated on the sections for 1 h at 37° C. Primary antibodies were visualized used DAB as a chromagen using the UltraMap system (Ventana Medical systems) followed by hematoxylin as a counterstain. Slides were rinsed, dehydrated through alcohol and xylene and coverslipped.
Immununostained slides were scanned using an Axio Scan.Z1 (Zeiss; Oberkochen, Germany). […] Whole-slide images were imported into Definiens Software for quantitative analysis (Definiens; Munich, Germany). […] For analysis of pH3 (a nuclear stain), the total number of nuclei and the total number of nuclei showing DAB staining (pH3 positive cells) were recorded within each ROI. The percent of positive nuclei was then calculated for each sample. For analysis of C1C3 (a cytoplasmic stain), mean DAB chromagen intensity was measured and calculated within the ROI for each sample.

[13] = tested on: NCI N87 (gastric cancer) cells; settings: NCI N87 (HER2 cell line); 72-96 h
Experimental: as §3

HCT116 cells [14] = settings: HCT116 (HER2−); 72-96 h
Experimental: as §3

HER2+ tumours = settings: combined with IR
Experimental: CAL-27, OE19, NCI N87 and HCT116 tumour xenografts were established and tumour growth was measured with digital calipers. […] Mice were assigned to indicated groups in ‘Results’. […] For irradiated mice, the tumour-bearing hindlimbs were focally irradiated while the remainder of the mouse was shielded from IR with custom designed lead blocking >95% of the dose as verified by dosimeters placed on the mouse. […] To minimize the number of mice used, tumours were grown in the bilateral flanks.

[15] = tested on: NCI N87 (HER2+) tumour xenografts; assay: In vivo tumour xenograft experiments (tumour growth); design: species or system mice; settings: for Tumour doubling time in days (mean, 95% CI): NCI N87
Experimental: as §4

[16] = tested on: HCT116 (HER2−) tumour xenografts; assay: as above; design: species or system mice; settings: for Tumour doubling time in days (mean, 95% CI): HCT116
Experimental: as §4

OE19 cells [17] = assay: Alamar Blue cell viability assay; assay type: cell-based, human; settings: OE19 (HER2 cell line); 72-96 h
[18] = 0.25 nmol day 0, 2.5 Gy days 1, 2 and 3
[19] = 0.25 nmol i.v. day 0 + IR 2.5 Gy days 1, 2 and 3, extrapolated

CC[C@H](C)[C@@H]([C@@H](CC(=O)N1CCC[C@H]1[C@H](OC)[C@@H](C)C(=O)N[C@H](C)[C@@H](O)c1ccccc1)OC)N(C)C(=O)[C@@H](NC(=O)[C@@H](NC)C(C)C)C(C)C [MMAE, monomethyl auristatin E] (H-[NMeV]V[Dil][Dolaproine]-X1)
comet tail length after irradiation [1]: increased comet tail length to a similar degree
comet tail length after irradiation (OE19 cells (HER2+); 6 Gy, 2 nM overnight): further increased comet tail length
cell morphology (CAL-27 cells [2]): cells rounding up, indicative of G2/M
cytotoxicity (cell viability) [3]: more potent compared with standard cytotoxic chemotherapies
cell cycle profile (G2/M) (CAL-27 cells [4]): cells accumulating in G2/M
cell cycle profile (G2/M) (OE19 cells [5]): cells accumulating in G2/M
tumour growth (CAL-27 tumour xenografts): delayed tumour growth
surviving fraction following 2 Gy (SF2) (CAL-27 cells [6]): decreased
IR induced DNA damage (comet tail length) (HER2+ tumor cells): further increased IR induced DNA damage

CC[C@H](C)[C@@H]([C@@H](CC(=O)N1CCC[C@H]1[C@H](OC)[C@@H](C)C(=O)N[C@@H](Cc1ccccc1)C(=O)O)OC)N(C)C(=O)[C@@H](NC(=O)[C@@H](NC)C(C)C)C(C)C [MMAF] (H-[NMeV]V[Dil][Dolaproine]F-OH)
potency compared to MMAE [7]: decreased potency compared to MMAE across tumor cell lines
IR induced DNA damage (comet tail length) (HER2+ tumor cells): not

COc1cc2cc(c1Cl)N(C)C(=O)C[C@H](OC(=O)[C@H](C)N(C)C(=O)CCS)[C@]1(C)O[C@H]1[C@H](C)[C@@H]1C[C@@](O)(NC(=O)O1)[C@H](OC)/C=C/C=C(\C)C2 [mertansine]
surviving fraction following 2 Gy (SF2) (HCT116 cells [8]): decreased further
radiosensitization (IR induced DNA double-strand breaks) (HER2+ cell lines): radiosensitized by increasing IR induced DNA double-strand breaks in both HER2+ and HER2− cell lines
radiosensitization (IR induced DNA double-strand breaks) (HER2− cell lines): radiosensitized by increasing IR induced DNA double-strand breaks in both HER2+ and HER2− cell lines
cell cycle profile (G2/M) (HCT116 cells [9]): increased the accumulation of both OE19 and HCT116 cells in the radiosensitive G2/M phase
cell cycle profile (G2/M) (OE19 cells [5]): increased the accumulation of both OE19 and HCT116 cells in the radiosensitive G2/M phase
surviving fraction following 2 Gy (SF2) (CAL-27 cells [6]): decreased further
pIC50 ([10]; across cell lines, irrespective of HER2 expression): 8.00

CC(=O)O[C@H]1C(=O)[C@@]2(C)[C@H]([C@H](OC(=O)c3ccccc3)[C@]3(O)C[C@H](OC(=O)[C@H](O)[C@@H](NC(=O)c4ccccc4)c4ccccc4)C(C)=C1C3(C)C)[C@]1(OC(C)=O)CO[C@@H]1C[C@@H]2O [paclitaxel]
cytotoxic potency (comparison) (CAL-27 cells [11]; HER2− CAL-27 cells): more potent than T-DM1

ado-trastuzumab emtansine [T-DM1]
tumour regression, combined with IR [12, 18]: significantly prolonged tumour regression
Tumour doubling time in days (mean, 95% CI) [12, 19]: 66 (33+) days
Tumour doubling time in days (mean, 95% CI) ([12]; 0.25 nmol i.v. day 0, no IR): 11 (8-17) days
tumour control combined with IR vs other regimens ([12]; by day 22): superior to all other treatment
tumour growth ([12]; single dose of 1 nmol, compared with control or trastuzumab by day 14): equally efficacious in slowing tumour growth
apoptosis (cleaved caspase 3) in tumours (OE19 tumour xenografts): increased apoptosis
cells in G2/M as measured by pS10 Histone H3 (OE19 tumour xenografts): increased the number of cells in radiosensitive G2/M phase
pIC50 [13]: > 9.00
pIC50 (HCT116 cells [14]): < 7.00
pIC50 (CAL-27 cells [11]; CAL-27 (HER2−), 72-96 h): < 7.00
long term tumour control (survival curve) (HER2+ tumours): long term tumour control was observed
radiosensitization (comet tail length) (OE19 cells (HER2+); doses as low as 2 nM T-DM1): radiosensitized OE19 cells
radiosensitization (IR induced DNA double-strand breaks) (HER2+ cell lines): restricted radiosensitization of HER2+cells
radiosensitization (IR induced DNA double-strand breaks) (HER2− cell lines): appear inert to irradiated non-HER2 expressing cells
tumour regression, combined with IR [15, 18]: significantly prolonged tumour regression
Tumour doubling time in days (mean, 95% CI) [15, 19]: 113 (82-179) days
Tumour doubling time in days (mean, 95% CI) ([15]; 0.25 nmol i.v. day 0, no IR): 23 (21-25) days
tumour control combined with IR vs other regimens ([15]; by day 32): superior to all other treatment
benefit of adding drug to IR [16, 18]: showed no benefit of adding T-DM1 to IR
Tumour doubling time in days (mean, 95% CI) ([16]; 0.25 nmol i.v. day 0 + IR 2.5 Gy days 1, 2 and 3): 7 (5-12) days
Tumour doubling time in days (mean, 95% CI) ([16]; 0.25 nmol i.v. day 0, no IR): 3 (2-5) days
cell cycle profile (G2/M) (HCT116 cells [9]): resembled vehide-treated cells
cell cycle profile (G2/M) (OE19 cells [5]): blocked OE19 cells in G2/M
pIC50 (OE19 cells [17]): > 9.00
potency in relation to HER2 expression [10]: directly correlated with HER2 expression

— US20180140703A1, “TUMOR RADIOSENSITIZATION WITH ANTIBODY CONJUGATES” (The Regents of the University California, priority 2016, published 2018)
